A value given as a limit tells only on which side of the number the result lay.

In the test the target is Metabotropic glutamate receptor 4 (Homo sapiens, UniProt Q14833). Put plainly: Receptor Activity Assay. The protocol: The disclosed compounds and compositions can be evaluated for their ability to act as a potentiator of metabotropic glutamate receptor activity, in particular mGluR4 activity, by any suitable known methodology known in the art. For example, Chinese Hamster Ovary (CHO) cells transfected with human mGluR4 or HEK cells co-transfected with rat mGluR4 and the G-protein regulated Inwardly Rectifying Potassium channel (GIRK) were plated in clear bottom assay plates for assay in a Hamamatsu FDSS Fluorometric Plate Reader. The cells were loaded with either a Ca2+-sensitive fluorescent dye or the thallium responsive dye and the plates were washed and placed into a suitable kinetic plate reader. For human mGluR4 assays, a fluorescence baseline was established for 3-5 seconds, the disclosed compounds were then added to the cells, and the response in cells was measured.
Chain of Metabotropic glutamate receptor 4 (Q14833 whole entry): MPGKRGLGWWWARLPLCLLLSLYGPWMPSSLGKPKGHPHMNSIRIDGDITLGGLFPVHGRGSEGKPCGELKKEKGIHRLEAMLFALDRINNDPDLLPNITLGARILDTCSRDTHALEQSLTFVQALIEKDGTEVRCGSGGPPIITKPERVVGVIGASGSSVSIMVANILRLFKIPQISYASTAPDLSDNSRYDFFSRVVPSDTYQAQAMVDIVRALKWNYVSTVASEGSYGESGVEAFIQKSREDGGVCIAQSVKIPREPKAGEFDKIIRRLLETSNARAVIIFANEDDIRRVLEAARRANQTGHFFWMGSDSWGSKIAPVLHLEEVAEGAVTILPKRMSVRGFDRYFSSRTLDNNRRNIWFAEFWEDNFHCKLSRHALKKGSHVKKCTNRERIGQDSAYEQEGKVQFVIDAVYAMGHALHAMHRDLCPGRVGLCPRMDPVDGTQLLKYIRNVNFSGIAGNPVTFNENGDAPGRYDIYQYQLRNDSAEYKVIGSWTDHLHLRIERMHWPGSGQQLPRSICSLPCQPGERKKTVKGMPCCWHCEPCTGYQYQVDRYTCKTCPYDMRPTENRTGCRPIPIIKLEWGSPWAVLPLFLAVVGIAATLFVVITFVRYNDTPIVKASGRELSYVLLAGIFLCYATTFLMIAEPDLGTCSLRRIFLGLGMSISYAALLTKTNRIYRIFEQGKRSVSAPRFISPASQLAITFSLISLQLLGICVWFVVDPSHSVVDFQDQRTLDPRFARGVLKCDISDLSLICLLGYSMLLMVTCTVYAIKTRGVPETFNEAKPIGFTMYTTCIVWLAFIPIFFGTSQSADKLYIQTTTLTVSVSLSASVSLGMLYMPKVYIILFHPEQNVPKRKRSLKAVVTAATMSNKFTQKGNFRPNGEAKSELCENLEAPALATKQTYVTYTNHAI

As a reminder, the EC50 is the concentration giving half of the maximal effect. Consider `CC(C)c1nc(NC(=O)c2ccccn2)sc1S(=O)(=O)Cc1ccc(F)cc1F` [US9192603, 65], for which the EC50 was over 10 µM.
